Experimental findings from US10233184B2, “7-substituted sulfonimidoylpurinone compounds and derivatives for the treatment and prophylaxis of virus infection” (Hoffmann-La Roche Inc., priority 2016, dated 2019) are described below.

This assay addresses T1, human TLR7 (Homo sapiens, UniProt Q9NYK1).
T1 sequence (Q9NYK1 27-1049): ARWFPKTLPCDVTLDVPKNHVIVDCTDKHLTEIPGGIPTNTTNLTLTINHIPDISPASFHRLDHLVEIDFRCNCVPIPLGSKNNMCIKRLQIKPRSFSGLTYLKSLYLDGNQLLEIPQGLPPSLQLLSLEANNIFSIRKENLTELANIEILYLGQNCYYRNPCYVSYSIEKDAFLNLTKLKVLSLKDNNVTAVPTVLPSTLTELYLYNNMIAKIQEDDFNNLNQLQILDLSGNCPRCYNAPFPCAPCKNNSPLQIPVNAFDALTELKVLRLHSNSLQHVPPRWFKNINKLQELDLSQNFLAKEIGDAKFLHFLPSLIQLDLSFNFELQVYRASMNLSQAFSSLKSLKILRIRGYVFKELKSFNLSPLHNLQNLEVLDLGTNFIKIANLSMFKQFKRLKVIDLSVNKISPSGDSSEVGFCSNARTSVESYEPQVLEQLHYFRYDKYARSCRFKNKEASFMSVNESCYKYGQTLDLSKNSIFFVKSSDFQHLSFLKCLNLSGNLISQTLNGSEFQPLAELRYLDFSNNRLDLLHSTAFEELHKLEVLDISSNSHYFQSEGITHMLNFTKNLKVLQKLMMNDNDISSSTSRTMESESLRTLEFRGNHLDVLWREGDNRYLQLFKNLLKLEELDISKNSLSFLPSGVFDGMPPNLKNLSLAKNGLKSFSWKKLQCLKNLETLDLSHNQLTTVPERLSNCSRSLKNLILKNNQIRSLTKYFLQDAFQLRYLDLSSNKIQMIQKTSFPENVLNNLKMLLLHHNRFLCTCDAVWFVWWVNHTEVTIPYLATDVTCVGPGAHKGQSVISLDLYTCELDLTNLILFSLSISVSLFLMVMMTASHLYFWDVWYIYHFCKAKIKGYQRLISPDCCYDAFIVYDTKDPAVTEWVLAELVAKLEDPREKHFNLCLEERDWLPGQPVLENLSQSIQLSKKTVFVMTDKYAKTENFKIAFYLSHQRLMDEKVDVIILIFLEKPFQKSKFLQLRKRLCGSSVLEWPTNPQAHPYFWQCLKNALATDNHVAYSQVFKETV
Nature of the assay: HEK293-Blue-hTLR-7 cells assay (SEAP reporter). Format: cell-based. The following applies: for EC50: HEK293-Blue-hTLR-7 cells, SEAP reporter, 20 hrs; for Ratio (EC50(prodrug)/EC50(active form)): EC50 of prodrug over EC50 of corresponding active form. From the text:
HEK293-Blue-hTLR-7 Cells Assay:
A stable HEK293-Blue-hTLR-7 cell line was purchased from InvivoGen (Cat.#: hkb-htlr7, San Diego, Calif., USA). These cells were designed for studying the stimulation of human TLR7 by monitoring the activation of NF-κB. A SEAP (secreted embryonic alkaline phosphatase) reporter gene was placed under the control of the IFN-β minimal promoter fused to five NF-κB and AP-1-binding sites. The SEAP was induced by activating NF-κB and AP-1 via stimulating HEK-Blue hTLR7 cells with TLR7 ligands. Therefore the reporter expression was regulated by the NF-κB promoter upon stimulation of human TLR7 for 20 hrs. The cell culture supernatant SEAP reporter activity was determined using QUANTI-Blue™ kit (Cat.#: rep-qbl, Invivogen, San Diego, Calif., USA) at a wavelength of 640 nm, a detection medium that turns purple or blue in the presence of alkaline phosphatase.
HEK293-Blue-hTLR7 cells were incubated at a density of 250,000˜450,000 cells/mL in a volume of 180 μL in a 96-well plate in Dulbecco's Modified Eagle's medium (DMEM) containing 4.5 g/L glucose, 50 U/mL penicillin, […], […], 2 mM L-glutamine, 10% (V/V) heat-inactivated fetal bovine serum for 24 hrs. Then the HEK293-Blue-hTLR-7 cells were incubated with addition of 20 μL test compound in a serial dilution in the presence of final DMSO at 1% and perform incubation under 37° C. in a CO2 incubator for 20 hrs. Then 20 μL of the supernatant from each well was incubated with 180 μL Quanti-blue substrate solution at 37° C. for 2 hrs and the absorbance was read at 620˜655 nm using a spectrophotometer. The signalling pathway that TLR7 activation leads to downstream NF-κB activation has been widely accepted, and therefore similar reporter assay was also widely used for evaluating TLR7 agonist (Tsuneyasu Kaisho and Takashi Tanaka, Trends in Immunology, Volume 29, Issue 7, July 2008, […]; Hiroaki Hemmi et al, Nature Immunology 3, 196-200 (2002)).
The Compounds and Examples of the present invention were tested in HEK293-hTLR-7 assay for their TLR7 agonism activity as described herein and results are listed in Table 1. […] The calculated ratio of EC50(prodrug)/EC50(active form) were within the range from 32 to about 7600.

[1] abbreviates: active form, read-out: HEK293-hTLR-7 EC50 (Active form).
The mark [2] stands for this setting: prodrug, read-out: HEK293-hTLR-7 EC50 (Prodrug).

Read-outs that look alike come from different tables or passages of the source.

A word on the EC50: it is the concentration giving half of the maximal effect. On to `CCCS(=N)(=O)c1nc(N)c2[nH]c(=O)n(Cc3ccccc3)c2n1` (single isomer, unassigned) [Compound 1e-B], for which the EC50 under setting [1] is 0.086 µM.
With `CCN(C)C(=O)n1c(=O)n(Cc2ccc(C)cc2)c2nc([S@@](=N)(=O)CC)nc(N)c21` (stereo in doubt) [Example 44-B, 6-Amino-N-ethyl-2-[S(R)-ethylsulfonimidoyl]-N-methyl-8-oxo-9-(p-tolylmethyl)purine-7-carboxamide], the “Ratio (EC50(prodrug)/EC50(active form))” value amounted to 879.1. The EC50 under setting [2] is 96.7 µM.
On the same counts, the results for `CCC[S@](=N)(=O)c1nc(N)c2c(n1)n(Cc1ccc(C)cc1)c(=O)n2C(=O)N1CCCC1` [Example 37-A, 6-Amino-2-[S(S)-propylsulfonimidoyl]-9-(p-tolylmethyl)-7-(pyrrolidine-1-carbonyl)purin-8-one] are 1400 and 26.6 µM.
On the same counts, the results for `CCCCN(C)C(=O)n1c(=O)n(Cc2ccc(Cl)cc2)c2nc([S@@](=N)(=O)CCC)nc(N)c21` [Example 34-A, 6-Amino-N-butyl-9-[(4-chlorophenyl)methyl]-N-methyl-8-oxo-2-[S(S)-propylsulfonimidoyl]purine-7-carboxamide] are 428.6 and 6 µM.
With `CCCN(C)C(=O)n1c(=O)n(Cc2ccc(Cl)cc2)c2nc(S(=N)(=O)CC)nc(N)c21` (stereo not shown) [Example 41], the “Ratio (EC50(prodrug)/EC50(active form))” value is 679.2. For the same compound, the EC50 under setting [2] stood at 36 µM.
Consider `CCC[S@](=N)(=O)c1nc(N)c2[nH]c(=O)n(Cc3ccc(Cl)cc3)c2n1` (single isomer, unassigned) [Compound 34e-A], for which, under setting [1], the EC50 stood at 0.014 µM.
As for `CCCCN(C)C(=O)n1c(=O)n(Cc2ccc(C)cc2)c2nc(S(=N)(=O)CCC)nc(N)c21` (stereo not shown) [Example 40, 6-Amino-N-butyl-N-methyl-8-oxo-2-(propylsulfonimidoyl)-9-(p-tolylmethyl)purine-7-carboxamide], the “Ratio (EC50(prodrug)/EC50(active form))” value is given as 1955.6. In addition, under setting [2], the EC50 was 52.8 µM.
Regarding `CCCS(=N)(=O)c1nc(N)c2[nH]c(=O)n(Cc3ccc(C)cc3)c2n1` (single isomer, unassigned) [Compound 36g-B], the EC50 under setting [1] came out at 0.022 µM.
As to `CCCS(=N)(=O)c1nc(N)c2[nH]c(=O)n(Cc3ccccc3)c2n1` (stereo not shown) [Compound 1e, 6-amino-9-benzyl-2-(propylsulfonimidoyl)-7H-purin-8-one], the EC50 under setting [1] was 0.065 µM.
As to `CCN(C)C(=O)n1c(=O)n(Cc2ccc(C)cc2)c2nc([S@@](=N)(=O)CC)nc(N)c21` [Example 44-A, 6-Amino-N-ethyl-2[S(S)-ethylsulfonimidoyl]-N-methyl-8-oxo-9-(p-tolylmethyl)purine-7-carboxamide], the “Ratio (EC50(prodrug)/EC50(active form))” value is 1868.6. In addition, the EC50 under setting [2] was found to be 65.4 µM.
Consider `CCS(=N)(=O)c1nc(N)c2[nH]c(=O)n(Cc3ccc(Cl)cc3)c2n1` (stereo not shown) [Compound 41c, 6-amino-9-[(4-chlorophenyl)methyl]-2-(ethylsulfonimidoyl)-7H-purin-8-one], for which the EC50 under setting [1] was found to be 0.053 µM.
`CCC[S@](=N)(=O)c1nc(N)c2c(n1)n(Cc1ccc(C)cc1)c(=O)n2C(=O)N1CCCC1` (stereo in doubt) [Example 37-B, 6-amino-2-[S(R)-propylsulfonimidoyl]-9-(p-tolylmethyl)-7-(pyrrolidine-1-carbonyl)purin-8-one]: the “Ratio (EC50(prodrug)/EC50(active form))” value amounted to 2154.5. In addition, under setting [2], the EC50 was 47.4 µM.
In the case of `CCCS(=N)(=O)c1nc(N)c2[nH]c(=O)n(Cc3ccc(C)cc3)c2n1` (single isomer, unassigned) [Compound 36g-A], the EC50 under setting [1] was found to be 0.019 µM.
For `CCCCN(C)C(=O)n1c(=O)n(Cc2ccc(Cl)cc2)c2nc([S@@](=N)(=O)CCC)nc(N)c21` [Example 34-B, 6-amino-N-butyl-9-[(4-chlorophenyl)methyl]-N-methyl-8-oxo-2-[S(S)-propylsulfonimidoyl]purine-7-carboxamide], the “Ratio (EC50(prodrug)/EC50(active form))” value amounted to 578.2. The EC50 under setting [2] came out at 6.36 µM.
Take `CCC[S@](=N)(=O)c1nc(N)c2c(n1)n(Cc1ccc(C)cc1)c(=O)n2C(=O)N(C)CCOC` (stereo in doubt) [Example 38-B, 6-amino-N-(2-methoxyethyl)-N-methyl-8-oxo-2-[S(R)-propylsulfonimidoyl]-9-(p-tolylmethyl)purine-7-carboxamide]: the “Ratio (EC50(prodrug)/EC50(active form))” value was 886.4. The EC50 under setting [2] was found to be 19.5 µM.
For the compound `CCC[S@](=N)(=O)c1nc(N)c2c(n1)n(Cc1ccc(C)cc1)c(=O)n2C(=O)N(C)CCOC` [Example 38-A, 6-Amino-N-(2-methoxyethyl)-N-methyl-8-oxo-2-[S(S)-propylsulfonimidoyl]-(p-tolylmethyl)purine-7-carboxamide], the EC50 under setting [2] amounted to 26.2 µM.
With `CCCS(=N)(=O)c1nc(N)c2c(n1)n(Cc1ccc(C)cc1)c(=O)n2C(=O)N(C)CC` (stereo not shown) [Example 39, 6-Amino-N-ethyl-N-methyl-8-oxo-2-(propylsulfonimidoyl)-9-(p-tolylmethyl)purine-7-carboxamide], the “Ratio (EC50(prodrug)/EC50(active form))” value was determined as 159.3. Further, under setting [2], the EC50 stood at 4.3 µM.
On to `CCC[S@](=N)(=O)c1nc(N)c2[nH]c(=O)n(Cc3ccc(Cl)cc3)c2n1` (single isomer, unassigned) [Compound 34e-B], for which, under setting [1], the EC50 was determined as 0.011 µM.
